In US6395745B1, “Alkaloid halide salts of swainsonine and methods of use” (priority 1997, dated 2002):
Values after ≈ are worked out from the molar mass of the structure shown. Counter-ions that a name gives are not always drawn.

Experiments:
[1] = Accelerated stability of stressed solid samples, percentage remaining by HPLC; assay type: physicochemical; settings: for percentage remaining, condition (e): 40° C. with 75% relative humidity for seven days; for percentage remaining, condition (d): 70° C. with low humidity for seven days; for percentage remaining, condition (c): 105° C. under nitrogen for seven days (*=average of two samples); for percentage remaining, condition (b): 105° C. with atmospheric oxygen for seven days (*=average of two samples); for percentage remaining, condition (a): UV light for 7 days
Text: Samples of swainsonine free base synthesized using synthetic routes developed by Dr. David Dime (Toronto Research Chemicals, Toronto, Ontario) and Dr. William Pearson (University of Michigan, Ann Arbor, Mich.), were recrystallized to obtain either the hydrochloride salt, the hydrobromide salt or the free base of swainsonine. Samples were weighed and exposed to the conditions described below.
To model long-term stability or shelf life, various conditions were used to accelerate the decomposition process. Samples of crystalline prism swainsonine hydrochloride salt and swainsonine free base (a white, fluffy powder obtained from swainsonine hydrochloride were recrystallized from chloroform-methanol-diethyl ether) were weighed and exposed to conditions described below (stressed samples). Unstressed samples were prepared at 1 mg/ml concentration and chromatographed in sextuplicate on each run. After the indicated time interval each stressed sample was diluted with mobile phase at the same concentration as the unstressed sample. The percentage remaining swainsonine hydrochloride or swainsonine free base was calculated based on the percentage of either the hydrochloride or the free base in the unstressed sample.
The conditions included (a) UV light for 7 days; (b) 105° C. with atmospheric oxygen for seven days (*=average of two samples); (c) 105° C. under nitrogen for seven days (*=average of two samples); (d) 70° C. with low humidity for seven days; and (e) 40° C. with 75% relative humidity for seven days. Other tests include (f) UV for 24 hours; (g) 100° C. aqueous solution for two hours; (h) aqueous acidic treatment for 24 hours; (i) aqueous alkali treatment for 4 hours; and (j) (aqueous) 3% hydrogen peroxide for 4 hours. […] The physical properties of swainsonine hydrochloride compared to the free base and swainsonine hydrobromide, and swainsonine hydrofluoride are shown in Table 5.

human MeWo melanoma = settings: orally or by mini-osmotic pumps; cited from earlier work
murine tumor cells = settings: organ-colonization and spontaneous metastasis assays; cited from earlier work
[2] = mouse, in vivo; cited from earlier work
[3] = test system: splenic and bone marrow (BM) cell; settings: cited from earlier work
[4] = mouse, in vivo; cited from earlier work; remark: listed apart in the source
NK cell = settings: cited from earlier work
[5] = test system: granulocyte-macrophage progenitor cells (CFU-GM); test: Murine bone marrow progenitor cell assay in methylcellulose, CFU-GM; assay type: cell-based, C57BL/6 mouse; settings: FIG. 11
Description: (§1) The healthy and GD0039 treated mice were euthanized by CO2 asphyxiation. Bone marrow (BM) cell suspensions were prepared under sterile conditions by flushing both femurs and tibiae with IMDM/FBS using a 26 gauge needle. Single cell suspensions were made up to 10.0 ml IMDM/FBS. The concentration of nucleated cells in each suspension was determined by triplicate counts on a hemocytometer. A portion of the cells was further diluted in media to the appropriate concentration before plating for the progenitor assay.
Colony-forming units (CFUs) were estimated by the methylcellulose method. One milliliter suspensions, containing 2×10^5 nucleated BM cells, in 0.1 ml of IMDM and 0.9 ml MethoCult (M3330), were plated in triplicate in 35 mm tissue culture dishes. Swainsonine hydrochloride or swainsonine were added to certain plates, in 0.1 ml of IMDM at concentrations of 30 μg/ml and 3 μg/ml, which gave final concentrations of […]. The MethoCult M3330 contains 30% FBS and 10 μg/ml erythropoietin and is designed for the growth of early erythroid progenitor cells (CFU-E), which were scored after 3 days of incubation at 37° C. in a humidified atmosphere containing 5% CO2. […] Colonies containing more than 20 cells were scored using an inverted microscope with brightfield optics and 40× or 100× magnification. […]

[6] = test system: early erythroid progenitor cells (CFU-E); test: Murine bone marrow progenitor cell assay in methylcellulose, CFU-E; assay type: cell-based, C57BL/6 mice
Description: Pathogen-free C57BL/6 female mice, 8-9 weeks old, obtained from Jackson Laboratories were used. The room environment and photoperiod were controlled: 24° C.; humidity, 50±20%; 12 hr light and 12 hr dark. Mice were housed one per cage with ad libitum accesses to standard pelleted commercial laboratory diet and to sterile (autoclaved) tap water.
Swainsonine hydrochloride was manufactured by Seres Laboratories, Calif. FBS and methylcellulose (MethoCult M3330) were purchased from Stem Cell Technologies, Inc. (Vancouver. BC). Iscove's modified Dulbecco's medium was prepared using powdered media from Gibco BRL, deionized water and filter sterilization. For the handling of cells, the media was supplemented with 2% FBS and 50 μM β-mercaptoethanol (referred to as IMDM/FBS).
as §1
Colony-forming units (CFUs) were estimated by the methylcellulose method. One milliliter suspensions, containing 2×10^5 nucleated BM cells, in 0.1 ml of IMDM and 0.9 ml MethoCult (M3330), were plated in triplicate in 35 mm tissue culture dishes. […] The MethoCult M3330 contains 30% FBS and 10 μg/ml erythropoietin and is designed for the growth of early erythroid progenitor cells (CFU-E), which were scored after 3 days of incubation at 37° C. in a humidified atmosphere containing 5% CO2. […] Colonies containing more than 20 cells were scored using an inverted microscope with brightfield optics and 40× or 100× magnification.

HT29m colon carcinoma = settings: orally or by mini-osmotic pumps; cited from earlier work
tumor cell invasion = settings: in vitro; cited from earlier work
[7] = Solubility in distilled water at room temperature; assay type: physicochemical; settings: distilled water, water
Description: The melting point of the clear swainsonine hydrochloride crystal (prism) was 190-191° C. The solubility of swainsonine hydrochloride in distilled water at room temperature was about 3 g/ml, in contrast to the solubility of swainsonine free base, which is about 0.8 g/ml (see Table 5).

LAK cell = settings: cited from earlier work

## O[C@H]1[C@H]2[C@H](O)CCCN2C[C@H]1O [swainsonine hydrobromide, Swainsonine hydrobromide salt]
[1]; hydrobromide salt
  percentage remaining, condition (e): 91.4%
  percentage remaining, condition (d): 95.5%
  percentage remaining, condition (c): 92.1%
  percentage remaining, condition (b): 88.3%
  percentage remaining, condition (a): 71.1%

## O[C@H]1[C@H]2[C@H](O)CCCN2C[C@H]1O [swainsonine]
Human MeWo melanoma
  growth rate of tumor xenografts: inhibited the growth rate
Murine tumor cells
  metastatic potential of treated murine tumor cells: less metastatic
[2]
  lethality of various chemotherapeutic agents: protect against the lethality
[3]
  splenic and bone marrow (BM) cell proliferation: increase
[1]; listed as SW
  percentage remaining, condition (e): 102.5%
  percentage remaining, condition (d): 98.5%
  percentage remaining, condition (c): 9.7%*
  percentage remaining, condition (b): 20.0%*
  percentage remaining, condition (a): 99.3%
[4]
  lethal doses of irradiation: protect
NK cell
  NK cell activity: increase
[5]
  effect on granulocyte-macrophage progenitor cells in vitro: stimulate
[6]; 0.03 μg/ml to 10 μg/ml in vitro
  increase in the number of early CFU-E: ~3 fold
[6]; added to methylcellulose in vitro
  number of early CFU-E, counted on day 3: significantly increased
[6]; mouse 1 (control), 0.3 μg/ml in vitro, in vitro control 54 ± 12
  mean CFU-E of triplicate counts ± SD from 2 × 10^5 nucleated BM cells: 108 ± 21
[6]; mouse 1 (control), 3 μg/ml in vitro, in vitro control 54 ± 12
  mean CFU-E of triplicate counts ± SD from 2 × 10^5 nucleated BM cells: 101 ± 12
[6]; mouse 2 (GD0039 treated in vivo, 20 μg/day for four days), 0.3 μg/ml in vitro
  mean CFU-E of triplicate counts ± SD from 2 × 10^5 nucleated BM cells: 71 ± 15
[6]; mouse 2 (GD0039 treated in vivo, 20 μg/day for four days), 3 μg/ml in vitro
  mean CFU-E of triplicate counts ± SD from 2 × 10^5 nucleated BM cells: 103 ± 1
HT29m colon carcinoma
  growth rate of tumor xenografts: inhibited the growth rate
Tumor cell invasion
  tumor cell invasion through extracellular matrix: block tumor cell invasion
[7]; Table 5
  solubility: 800 mg/mL (≈ 4620 mM)
[7]; room temperature
  solubility: ~800 mg/mL (≈ 4620 mM)
LAK cell
  LAK cell activity: increase
